The source of these data is PMC6271944 (Molecules, 2014).

The inhibition is the share of the control response that was lost under treatment. What is called IC50 is the concentration needed to halve the response being measured.

Data set [1] addresses T1, P-gp (Homo sapiens, UniProt P08183).
T1 construct: host or cells: WM-266-4 human melanoma cells
Kind of data set: P-gp inhibition, calcein-AM fluorometry assay in WM-266-4 cells. In kind it is cell-based. The note with it: probe calcein-AM (1 μM), all six concentrations 4.1~1,000 μM, response relative to verapamil at 100 μM. How it is done:
One vial of WM-266-4 cells was thawed and cultured in a 15 cm culture dish overnight. Cells were split the next day and transferred onto a clear bottom 96-well plate with 5.0 × 10^4 cells per well. […] Verapamil was used as a positive control at a concentration of 100 μM and 1% DMSO was used as a negative control. After 30 min of incubation time, calcein-AM diluted with 50 μL culture media without serum was added to a concentration of 1 μM and the sample was incubated for an additional 30 min. The plates were placed in the Flexstation II (Molecular Devices) and fluorescence was measured at excitation and emission wavelengths of 494 and 517 nm, respectively.
The P-gp inhibitor verapamil was used as positive control at a concentration of 100 μM. The experiment was considered valid if an increase in fluorescence greater than 5-fold was observed. For P-gp inhibition, a compound with a response less than 25% of verapamil at 100 μM is normally reported as “negative” at the tested concentration. The percent response value was used to determine and report the P-gp interaction at the tested concentration. A response equal to or greater than 25% of verapamil at 100 μM was considered to be “positive” at the tested concentration.

Data set [2] concerns the target T2, CYP2C11 (Rattus norvegicus, UniProt P08683).
T2 sequence (P08683 1-500): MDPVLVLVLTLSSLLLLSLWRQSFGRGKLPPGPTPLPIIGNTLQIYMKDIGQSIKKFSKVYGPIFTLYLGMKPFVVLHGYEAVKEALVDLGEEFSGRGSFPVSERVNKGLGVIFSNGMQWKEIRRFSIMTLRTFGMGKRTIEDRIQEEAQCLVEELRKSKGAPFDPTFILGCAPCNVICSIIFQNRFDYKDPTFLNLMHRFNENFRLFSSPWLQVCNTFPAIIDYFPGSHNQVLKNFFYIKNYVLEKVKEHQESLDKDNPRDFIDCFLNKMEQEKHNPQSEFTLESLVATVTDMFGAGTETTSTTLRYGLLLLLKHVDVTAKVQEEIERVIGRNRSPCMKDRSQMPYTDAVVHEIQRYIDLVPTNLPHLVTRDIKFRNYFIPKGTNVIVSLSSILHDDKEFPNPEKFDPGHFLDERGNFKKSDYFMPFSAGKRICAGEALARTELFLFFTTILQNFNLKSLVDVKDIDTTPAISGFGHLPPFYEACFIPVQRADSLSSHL
Kind of data set: CYP inhibition in rat liver microsomes, substrate cocktail, LC-MS/MS (diclofenac). The note with it: pH 7.4, probe diclofenac 5 μM, read-out: IC50 for RLM, CYP2C11 (table row CYP2C9). In kind it is in vitro ADME. An excerpt:
Positive controls (furafyline for CYP1A2, montelukast for CYP2C8, sulfaphenazole for CYP2C9, S-(+)-N-3-benzylnirvanol for CYP2C19, quinidine for CYP2D6, ketoconazole for CYP3A4) and specific substrates (phenacetin for CYP1A2, paclitaxel for CYP2C8, diclofenac for CYP2C9, S-mephenytoin for CYP2C19, dextromethorphan for CYP2D6, midazolam for CYP3A4) are consistent with our previous papers. The substrates were used at concentrations approximately equal to their respective Michaelis-Menten constant (Km) values: 10 μM phenacetin, 5 μM paclitaxel, 5 μM diclofenac, 200 μM S-mephenytoin, 5 μM dextromethorphan, and 2 μM midazolam. NADP^+ was added after a 15 min preincubation of all other components at 37 °C. After a given incubation time (30 min), the reactions were terminated by addition of 60 μL ice-cold acetonitrile containing gemfibrozil and buspirone as internal standards. Incubation samples were stored at −80 °C until used in liquid chromatography-tandem mass spectrometry (LC-MS/MS) analysis. The mixture was centrifuged at 3,500 rpm for 5 min. The supernatant was mixed with equal volume of a 1:1 mixture of methanol and water and 20 μL of the final mixture was used for LC-MS/ MS analysis. […]
The CYP inhibition potential were evaluated by measuring the formation of one or more metabolites of the test substrates. […]

For data set [3], the system named is UGT2B7. Set-up: dose or concentration left out as unconfirmed. The note with it: cited from earlier work.

T1 sequence (P08183 whole entry): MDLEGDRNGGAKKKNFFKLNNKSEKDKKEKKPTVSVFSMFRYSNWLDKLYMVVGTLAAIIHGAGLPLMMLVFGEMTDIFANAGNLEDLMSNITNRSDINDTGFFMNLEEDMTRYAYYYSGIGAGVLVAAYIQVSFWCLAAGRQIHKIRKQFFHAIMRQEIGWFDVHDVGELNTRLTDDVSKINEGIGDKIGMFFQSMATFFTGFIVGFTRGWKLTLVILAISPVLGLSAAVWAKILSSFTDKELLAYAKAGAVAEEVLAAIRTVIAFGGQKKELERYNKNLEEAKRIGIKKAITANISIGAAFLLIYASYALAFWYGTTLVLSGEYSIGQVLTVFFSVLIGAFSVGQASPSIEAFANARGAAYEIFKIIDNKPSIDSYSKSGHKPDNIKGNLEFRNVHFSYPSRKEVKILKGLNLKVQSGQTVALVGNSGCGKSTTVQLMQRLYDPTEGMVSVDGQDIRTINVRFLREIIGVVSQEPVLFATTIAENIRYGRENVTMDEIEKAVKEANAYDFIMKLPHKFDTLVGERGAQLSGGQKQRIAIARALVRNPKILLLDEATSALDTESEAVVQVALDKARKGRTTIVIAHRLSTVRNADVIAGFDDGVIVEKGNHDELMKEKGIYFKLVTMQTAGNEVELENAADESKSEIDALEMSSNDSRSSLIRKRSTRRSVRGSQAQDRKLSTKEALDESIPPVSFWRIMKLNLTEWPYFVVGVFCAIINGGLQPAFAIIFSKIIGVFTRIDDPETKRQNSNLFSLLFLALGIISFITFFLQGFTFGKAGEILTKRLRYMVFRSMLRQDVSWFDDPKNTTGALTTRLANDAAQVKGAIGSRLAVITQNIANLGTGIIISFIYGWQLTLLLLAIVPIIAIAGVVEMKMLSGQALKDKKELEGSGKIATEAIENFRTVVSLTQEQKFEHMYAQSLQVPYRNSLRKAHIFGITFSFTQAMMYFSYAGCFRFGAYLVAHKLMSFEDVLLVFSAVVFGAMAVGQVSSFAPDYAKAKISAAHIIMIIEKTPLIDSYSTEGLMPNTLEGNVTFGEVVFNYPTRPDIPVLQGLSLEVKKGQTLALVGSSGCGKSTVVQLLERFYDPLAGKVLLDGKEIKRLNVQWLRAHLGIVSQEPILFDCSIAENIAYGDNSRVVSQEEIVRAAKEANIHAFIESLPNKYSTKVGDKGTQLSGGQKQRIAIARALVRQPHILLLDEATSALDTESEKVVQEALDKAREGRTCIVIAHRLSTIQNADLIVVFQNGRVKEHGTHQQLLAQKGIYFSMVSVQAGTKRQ

As to `O=C(O)[C@H]1O[C@@H](Oc2cc3oc(-c4ccc(O)cc4)cc(=O)c3c(O)c2O)[C@H](O)[C@@H](O)[C@@H]1O` [scutellarin, Scutellarin], in data set [1], the inhibition at 60 min was less than 25%. Besides, the 50% inhibitory concentration (IC50) at 30 min in data set [2] was more than 100 µM. For the same compound, the “inhibition towards the activity of UGT2B7” value in data set [3] is given as 73.8%.
